Converted amounts (≈) assume the structure as drawn. “Also recorded” adds a separate entry of the source. Where two headings read alike, the source gives them in different places.
Assays:
[1] = tested on: colorectal cancer cell (HCT-116); test: Cytotoxic activity, MTT assay, HCT-116; format: cell-based, human; settings: for IC50: Homo sapiens, HCT-116, 48 h, read-out: HCT-116 IC50
[2] = tested on: prostate carcinoma cells (PC-3); test: Cytotoxic activity, MTT assay, PC-3; format: cell-based, human; settings: for IC50: Homo sapiens, 48 h, read-out: PC-3 IC50
[3] = tested on: hepatocellular carcinoma cells (HepG-2); test: Cytotoxic activity, MTT assay, HepG-2; format: cell-based, human; settings: for IC50: Homo sapiens, HepG2, 48 h, read-out: HepG-2 IC50
[4] = tested on: African green monkey kidney cell line (Vero-B); test: Cytotoxic activity, MTT assay, normal Vero-B cells; format: cell-based; settings: for IC50: Chlorocebus sabaeus, Vero B, read-out: VERO-B IC50
phosphodiesterase I = phosphodiesterase I (Crotalus adamanteus, UniProt J3SEZ3); test: biochemical; design: species or system snake
Vero cell line = test: Wound-healing assay; format: cell-based, African green monkey; settings: 35 or 70 µM; up to 48 h
[5] = tested on: HCT-116, PC-3, and HepG-2; test: Antitumor activity against cancer cell lines, summary in words; format: cell-based, human; settings: HCT-116, PC-3 and HepG-2 cell lines
[6] = MTT, 48 h incubation, ± SD of three experiments
[7] = normal cells, MTT, 48 h incubation, ± SD of three experiments

Sequence of phosphodiesterase I (J3SEZ3 24-851 limits assumed): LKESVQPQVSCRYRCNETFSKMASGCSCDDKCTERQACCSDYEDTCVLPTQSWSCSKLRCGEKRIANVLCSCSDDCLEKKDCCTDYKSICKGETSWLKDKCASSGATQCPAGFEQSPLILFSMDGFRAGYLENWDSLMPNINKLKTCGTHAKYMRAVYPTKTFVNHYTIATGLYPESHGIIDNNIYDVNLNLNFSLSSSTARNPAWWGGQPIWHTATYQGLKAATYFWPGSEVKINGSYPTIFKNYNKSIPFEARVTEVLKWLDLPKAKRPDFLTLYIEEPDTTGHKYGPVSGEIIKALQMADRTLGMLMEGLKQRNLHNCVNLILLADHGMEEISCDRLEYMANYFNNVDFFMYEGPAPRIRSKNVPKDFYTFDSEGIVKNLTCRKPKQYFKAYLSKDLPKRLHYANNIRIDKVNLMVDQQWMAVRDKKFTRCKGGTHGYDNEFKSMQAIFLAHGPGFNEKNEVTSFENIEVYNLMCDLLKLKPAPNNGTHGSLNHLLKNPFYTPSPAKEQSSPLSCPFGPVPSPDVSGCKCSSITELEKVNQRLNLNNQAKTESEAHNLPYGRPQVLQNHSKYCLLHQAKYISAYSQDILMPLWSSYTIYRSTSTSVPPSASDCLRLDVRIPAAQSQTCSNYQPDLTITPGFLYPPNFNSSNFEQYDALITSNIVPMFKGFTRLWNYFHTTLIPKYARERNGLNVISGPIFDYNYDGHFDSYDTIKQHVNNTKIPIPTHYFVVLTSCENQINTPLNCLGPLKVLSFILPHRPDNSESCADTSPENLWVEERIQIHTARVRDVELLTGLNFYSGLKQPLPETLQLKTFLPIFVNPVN

SMILES	IC50 [1, 6] [µg/mL]	IC50 [2, 6] [µg/mL]	IC50 [3, 6] [µg/mL]	IC50 [4, 7] [µg/mL]	further results
C=C(C)[C@@H]1CC[C@]2(C)CC[C@]3(C)[C@@H](CC[C@@H]4[C@@]5(C)C=CC(=O)C(C)(C)[C@@H]5CC[C@]43C)[C@@H]12 [Compound 3, ∆^1-lupenone]	> 100	> 100	> 100	> 100	
C=C(C=O)C1CCC2(C)CCC3(C)C(CCC4C5(C)CCC(OC(=O)C=Cc6ccc(O)c(O)c6)C(C)(C)C5CCC43C)C12 (stereo not drawn) [Compound 7, lup-20(29)-ene 3β-caffeate-30-al]	62 ± 1.42 (≈ 103 µM)	62 ± 1.42 (≈ 103 µM)	62 ± 1.42 (≈ 103 µM)	> 100	
CC[C@H](CC[C@@H](C)C1CCC2C3C(O)C=C4C[C@@H](O)CC[C@]4(C)C3CC[C@@]21C)C(C)C (stereo partly drawn) [Compound 11, 7α-hydroxy-β-sitosterol]	~8 (≈ 18.6 µM)	~8 (≈ 18.6 µM)	~8 (≈ 18.6 µM)	70 ± 0.5 (≈ 163 µM)	inhibition at 2 µM (phosphodiesterase I; read-out: phosphodiesterase I enzyme inhibition): 80.2%; wound healing of normal cells (Vero cell line): able to heal the wound at a rate closer to that observed for untreated cells; also recorded: wound size decreased; antitumor activity (in words) [5]: broad-spectrum activity
CC[C@H](CC[C@@H](C)[C@H]1CC[C@H]2[C@@H]3CC=C4C[C@@H](O)CC[C@]4(C)[C@H]3CC[C@]12C)C(C)C [Compound 9, β-sitosterol]					IC50 [1]: > 100 µg/mL; IC50 [2]: > 100 µg/mL; IC50 [3]: > 100 µg/mL; IC50 ([4]; 48 h): > 100 µg/mL; antitumor activity (in words) [5]: no activity
C=C(CO)[C@@H]1CC[C@]2(C)CC[C@]3(C)[C@H](CC[C@@H]4[C@@]5(C)CC[C@H](O)C(C)(C)[C@@H]5CC[C@]43C)[C@@H]12 [Compound 4, lup-20(29)-ene-3β,30-diol]	> 100	> 100	> 100	> 100	
C=C(C)[C@@H]1CC[C@]2(C)CC[C@]3(C)[C@H](CC[C@@H]4[C@@]5(C)CCC(OC(=O)/C=C/c6ccc(O)c(O)c6)C(C)(C)[C@@H]5CC[C@]43C)[C@@H]12 (some centres unmarked) [Compound 5, lupeol caffeate]	59 ± 0.45 (≈ 100 µM)	59 ± 0.45 (≈ 100 µM)	59 ± 0.45 (≈ 100 µM)	81 ± 1.1 (≈ 138 µM)	
O=C(O)CN(CCN(CC(=O)O)CC(=O)O)CC(=O)O [EDTA, reference compound]					IC50 (phosphodiesterase I; positive control, read-out: IC50 ± SD, phosphodiesterase I): 274 ± 0.007 µM
CC[C@H](CC[C@@H](C)C1CCC2C3C(=O)C=C4C[C@@H](O)CC[C@]4(C)C3CC[C@@]21C)C(C)C (stereo partly drawn) [Compound 13, 7-keto-β-sitosterol]	22.3 ± 0.24 (≈ 52 µM)	22.3 ± 0.24 (≈ 52 µM)	22.3 ± 0.24 (≈ 52 µM)	64 ± 1.1 (≈ 149 µM)	antitumor activity (in words) [5]: moderate activity
C=C(CO)[C@@H]1CC[C@]2(C)CC[C@]3(C)[C@H](CC[C@@H]4[C@@]5(C)CCC(OC(=O)/C=C/c6ccc(O)c(O)c6)C(C)(C)[C@@H]5CC[C@]43C)[C@@H]12 (stereo partly drawn) [Compound 6, 30-hydroxy lup-20(29)-ene 3β-caffeate]	68 ± 1.72 (≈ 112 µM)	68 ± 1.72 (≈ 112 µM)	68 ± 1.72 (≈ 112 µM)	68 ± 0.3 (≈ 112 µM)	
N.N.[Cl][Pt][Cl] [Cisplatin, cis-diamineplatinum (II) dichloride, reference compound]					HCT-116 IC50 [1, 6]: 12.6 ± 2 µg/mL; PC-3 IC50 [2, 6]: 5 ± 0.45 µg/mL; HepG-2 IC50 [3, 6]: 5 ± 1.5 µg/mL; VERO-B IC50 [4, 7]: 11 ± 1.3 µg/mL
CC(=O)[C@@H]1CC[C@]2(C)CC[C@]3(C)[C@H](CC[C@@H]4[C@@]5(C)CC[C@H](O)C(C)(C)[C@@H]5CC[C@]43C)[C@@H]12 [Compound 2, 30-norlup-3β-ol-20-one]	> 100	> 100	> 100	> 100	
C=C(C)[C@@H]1CC[C@]2(C)CC[C@]3(C)[C@H](CC[C@@H]4[C@@]5(C)CC[C@H](O)C(C)(C)[C@@H]5CC[C@]43C)[C@@H]12 [Compound 1, lupeol]	> 100	> 100	> 100	> 100	

From publication PMC7827382, “Sterols and Triterpenes from Dobera glabra Growing in Saudi Arabia and Their Cytotoxic Activity” (Plants, 2021)
